For one assay, the target named is T1, PLCγ1 nSH2 (Homo sapiens, UniProt P19174).
T1 construct: nSH2 (545–662): 180 ± 43 nM; thioredoxin (pETM22 fusion, purified on Ni column) (N, cleaved yes); made in house; host or cells: E. coli BL21(DE3)
T1 sequence (P19174 545-662): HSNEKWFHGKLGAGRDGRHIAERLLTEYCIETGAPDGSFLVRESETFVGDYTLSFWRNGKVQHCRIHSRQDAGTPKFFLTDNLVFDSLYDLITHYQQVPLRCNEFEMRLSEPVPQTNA
As to the kind of experiment: 1H,15N HSQC NMR titration, PLCγ1 nSH2. The settings on record: 1H-15N HSQC titration. It counts as binding. As to the method:
Fig 5 Affinity of pK15 peptide for PLCγ1 tSH2 or individual SH2 domains. (A) Binding curves of several PLCγ1 fragments in the presence of 200 nM 5,6-FAM-labelled pK15 (12mer). All measurements were performed in triplicate. […] (B and C) Overlay of ^1H,^15N HSQC NMR spectra of nSH2 (B) and cSH2 (C) alone (in yellow) and in the presence of 2 molar equivalents of the pK15 12mer peptide (blue), measured with a 600 MHz spectrometer at 298 K. The protein concentration was 100 μM and the buffer contained 100 mM MES, 150 mM NaCl, 3 mM TCEP, pH 6.5. (D and E) Excerpts from ^1H-^15N HSQC spectra of nSH2 (D) and cSH2 (E) upon addition of increasing concentrations of the pK15 12mer peptide.
Next, we used Nuclear Magnetic Resonance (NMR) spectroscopy to further compare the interaction of the phosphorylated pK15 12mer to the isolated nSH2 and cSH2 domains (Fig 5B–5E). We recorded ^1H-^15N HSQC spectra of each of the two domains in the presence of increasing concentrations of the pK15 peptide. In this spectrum, each N-H group of the protein gives rise to one peak. […] A change in the position of a few NMR peaks of the amide groups of the protein upon addition of the peptide is indicative of binding. […] The behavior of the NMR peaks during the titration series, however, differed for the two SH2 domains, indicating different binding kinetics. […] In light of this, it is conceivable that the preference of pK15 CT for cSH2 in vivo may be determined by kinetic rather than thermodynamic factors.
NMR experiments were recorded at 298 K on a 600-MHz Bruker Avance III-HD spectrometer equipped with an inverse HCN cryogenic probehead (nitrogen-cooled) and running Topspin 3.2 software. 2D ^15N-HSQC spectra were recorded using States-TPPI for frequency discrimination, with water suppression achieved via a combination of WATERGATE and water flip-back pulses to preserve the water magnetization. NMR data were processed in Topspin and analysed in CcpNmr Analysis v2.4 [74].

For assay [1], the system named is PLCγ1 tSH2 domain (Src-mediated phosphorylation, Y^783). As to the kind of experiment: in vitro Src kinase assay, PLCγ1 tSH2 Y783 phosphorylation. The format is biochemical. The following applies: 0.6 μM tSH2, 0.085 μM Src, 1.25–5 μM peptide or fixed 5.0 μM, 37°C, 1 hour or 45 min (method), pY783 Western blot. As to the method: Fig 7 The pK15 CT domain enhances Src-mediated phosphorylation of the PLCγ1 tSH2 domain. (A) The purified PLCγ1 tSH2 domain (0.6 μM) was incubated with limiting amounts (0.085 μM) of recombinant purified Src kinase expressed in insect cells in the presence of increasing concentrations (1.25–5 μM) of phosphorylated peptides representing the last 12 (pK15 12mer) or 35 (pK15 35mer) amino acids of the pK15 cytoplasmic domain for 1 hour at 37°C. The reaction was stopped using SDS sample buffer and analysed by SDS-PAGE and Western blot using an antibody to the PLCγ1 pY^783 residue (top panel) or to the His tag on the recombinant tSH2 domain (bottom panel). (B) Same as above, except that a fixed concentration (5.0 μM) of the 12mer peptide, the 35mer peptide or the pK15 truncation construct GST-pK15 CT^N2 [51] were used. The increased phosphorylation of the tSH2 domain in the presence of the 35mer peptide and pK15 CT^N2 can be seen. (C) Increasing concentrations of the phosphorylated pK15 12mer peptide were used to inhibit the increased src-mediated phosphorylation of tSH2 induced by 2.5 μM of the pK15 35mer peptide. Experimental conditions were as in panel A.
To test the impact of a pK15 CT fragment (pK15 CT^N2) or phosphorylated pK15 peptides representing the last 12 (DDLp[…]) or 35 ([…]pYEEVLFRN) amino acids of pK15 CT on the Src-mediated phosphorylation of the PLCγ1 tSH2 domain, GST-pK15CT^N2 was first phosphorylated with Src in vitro as described in the preceding paragraph. Phosphorylated GST-pK15 CT^N2 or the phosphorylated pK15 peptides, suspended in 50 mM Tris pH7.4, 300 mM NaCl, 1 mM DTT, were then added to the purified recombinant tSH2 domain (0.6 μM) together with a limiting amount of recombinant Src kinase (0.085 μM) in kinase buffer (20 mM Tris pH7.4, 20 mM NaCl, 1 mM DTT, 10 mM MgCl2, 0.2 mM ATP, 0.5 mM Sodium orthovanadate, 0.5 mM β-glycerophosphate) and the reaction allowed to proceed for 45 min. The reaction mix was then analysed by Western blot using an antibody to the phosphorylated Y^783 in the linker region of the PLCγ1 tSH2 domain and an antibody to the 5x His tag. To test the inhibitory effect of the phosphorylated 12mer pK15 peptide on the enhancement of PLCγ1 tSH2 domain phosphorylation induced by the pK15 35mer peptide, increasing concentrations (1.25–5.0 μM) of the 12mer peptide were added to a reaction mix containing the purified recombinant tSH2 domain (2.5 μM), the phosphorylated pK15 35mer (2.5 μM), and recombinant Src kinase (0.085 μM). Following a 45 min incubation at 37°C, the reaction mixture was analysed by Western blot as above.
Background: A western blot detects proteins with antibodies after separation by electrophoresis.

For “DDLpYEEVLFPRN [pK15 12mer, phosphorylated peptide representing the last 12 amino acids of pK15 CT (DDLp…)]”, the “dissociation rate koff or association rate kon of nSH2–peptide complex relative to cSH2–peptide complex” value on PLCγ1 nSH2 (298 K, pH 6.5) is recorded as “more than one order of magnitude slower than the corresponding rate of the cSH2–peptide complex”. Moreover, the NMR exchange regime result on PLCγ1 nSH2 (600 MHz, 298 K, 100 μM protein, 100 mM MES, 150 mM NaCl, 3 mM TCEP, pH 6.5) is given as “slow exchange regime”. The “affinity for nSH2 compared with cSH2 (NMR)” value at PLCγ1 nSH2 (same saturating concentration of peptide, either nSH2 or cSH2) is “both domains bound the K15 peptide with similar affinity”. In addition, the “effect on Src-mediated phosphorylation of PLCγ1 tSH2” value is “moderate inhibition” in assay [1] (listed as 12mer pK15 peptide) and “cannot enhance the Src-mediated phosphorylation of PLCγ1” in assay [1] (listed as 12mer peptide).

B1: pK15 CT^WT: pK15 cytoplasmic tail fused to GST at its N-terminal end, phosphorylated in vitro by Src (protein)
chain: SQLLNEVELQEVNRDPPNVFGYASILVSGAEESREPSPQPDQSGMSILRVDGGSAFRIDTAQAATQPTDDLYEEVLFPRN
modifications: tyrosine-phosphorylated in vitro by Src; sites not stated for this construct; left off: GST, N-terminal, kept
As to B1, the “effect on Src-mediated phosphorylation of PLCγ1 tSH2” value in assay [1] is recorded as “enhanced the Src-mediated phosphorylation of the PLCγ1 tSH2 domain”.
